Usually MIC stands for the lowest concentration that inhibits growth of the organism. Low values mean greater potency, high ones weaker potency. Broadly, the IC50 is the midpoint of a concentration-inhibition curve. A low value points to inhibition by little substance.

Experimental findings from ChEMBL document CHEMBL2311258, “Manzamenones L-N, new dimeric fatty-acid derivatives from an Okinawan marine sponge Plakortis sp” (Bioorg Med Chem Lett, 2013) are described below.

≈ marks a conversion by molar mass, not a printed value.

One test relates to Micrococcus luteus. Description: Antibacterial activity against Micrococcus luteus. It is filed as functional.
The test system of test [1] is Trichophyton mentagrophytes. Description: Antifungal activity against Trichophyton mentagrophytes. It is filed as functional, organism-based.
A further test has as its system Aspergillus niger. Description: Antifungal activity against Aspergillus niger. It is filed as functional, organism-based.
In a further test the test system is Candida albicans. Description: Antifungal activity against Candida albicans. It is filed as functional, organism-based.
The subject of another test is Staphylococcus aureus. The test can be described thus: Antibacterial activity against Staphylococcus aureus. It is filed as functional.
The test system of a further test is Cryptococcus neoformans. Description: Antifungal activity against Cryptococcus neoformans. It is filed as functional, organism-based.
The next test deals with Escherichia coli. The test can be described thus: Antibacterial activity against Escherichia coli. It is filed as functional.
The test system of the next test is Bacillus subtilis. Description: Antibacterial activity against Bacillus subtilis. It is filed as functional.

Turning to `CCCCCCCCCCCCCCCCC1=C[C@H](C(=O)O)[C@H]2C(=O)C(C(=O)OC)=C(CCCCCCCCCCCCCCCC)[C@@]2(O)[C@H]1C(=O)OC`, the MIC in the test with Micrococcus luteus is > 32 µg/mL; in the test with Staphylococcus aureus it was 16 µg/mL (≈ 21.1 µM); against Escherichia coli, 32 µg/mL (≈ 42.2 µM); with Bacillus subtilis, > 32 µg/mL. Further, the 50% inhibitory concentration (IC50) in test [1] is > 32 µg/mL; with Aspergillus niger it was > 32 µg/mL; in the test on Candida albicans, 32 µg/mL (≈ 42.2 µM); in the test on Cryptococcus neoformans, 8 µg/mL (≈ 10.5 µM).

For the compound `CCCCCCCCCCCCCCCCC1=C(C(=O)OC)C2=C(C(=O)[C@H](C(=O)OC)[C@H]2CCCCCCCCCCCCCCCC)C(C(=O)OC)C1` (some centres undefined) [MANZAMENONE N], the minimal inhibitory concentration (MIC) against Micrococcus luteus was > 32 µg/mL; in the test on Staphylococcus aureus, > 32 µg/mL; against Escherichia coli, 32 µg/mL (≈ 42.3 µM); in the test on Bacillus subtilis, > 32 µg/mL. The half-maximal inhibitory concentration (IC50) in test [1] was > 32 µg/mL; with Aspergillus niger, > 32 µg/mL; in the test on Candida albicans, 32 µg/mL (≈ 42.3 µM); with Cryptococcus neoformans it was 4 µg/mL (≈ 5.28 µM).

Consider `CCCCCCCCCCCCCCCCC1=C[C@H](C(=O)OC)[C@H]2C(=O)C(C(=O)OC)=C(CCCCCCCCCCCCCCCC)[C@@]2(O)[C@H]1C(=O)OC` (racemic), for which the MIC in the test on Micrococcus luteus, against Staphylococcus aureus, with Escherichia coli and in the test with Bacillus subtilis was > 32 µg/mL in each case. Besides, the 50% inhibitory concentration (IC50) (in test [1]; in the test with Aspergillus niger; in the test with Candida albicans; with Cryptococcus neoformans) was > 32 µg/mL throughout.
